{"source": "patent US20190185896A1", "about": "“Stimulation of Regenerative Processes and Factors by Noble Gases” (NOBILIS THERAPEUTICS, INC., priority 2017, published 2019)", "key": {"[1]": {"tested_on": "VEGF expression in fibroblasts", "test": "VEGF expression in fibroblasts in vitro (immunofluorescence staining, western blotting)", "type": "cell-based", "details": "75% Argon+25% O2, 24 h after treatment"}, "[2]": {"tested_on": "a SMA expression in fibroblasts", "test": "a-SMA expression in fibroblasts in vitro (immunofluorescence staining, western blotting)", "type": "cell-based", "details": "75% Argon+25% O2, 10 ng/ml TGF, 72 h after treatment", "experimental": "For in vitro fluorescence staining, cells were fixed in paraformaldehyde in 0.1 mol/l PBS solution. Cells were then incubated in 10% normal donkey serum in 0.1 mol/l PBS-Tween 20 and then incubated overnight with rabbit anti-angiopoietin-1 (1:200, Abcam), rabbit anti-TGF-β (1:200, Abcam), rabbit α-SMA (1:200, Abcam), followed by incubation with secondary antibody for 1 h. The slides were counterstained with nuclear dye DAPI and mounted with VECTASHIELD Mounting Medium (Vector Laboratories, Burlingame, Calif.). Sections were examined using an Olympus (Watford, UK) BX4 microscope.\nHUVEC cell sample was stored in a −80° C. freezer until use. Cell samples were homogenized in ice-cold cell lysis buffer (20 mM Tris pH 7.5, 1% Triton X-100, 150 mM sodium chloride, 1% pyrophosphate, 1% betaglycophosphate, 1% NP-40, 0.1% SDS, 1 mM EDTA, 100 μg/ml phenylmethylsulfonyl fluoride, 1 μg/ml aprotinin). All homogenates were then centrifuged for 20 minutes at 15,000 rpm at 4° C. The supernatants were then extracted and protein quantification was carried out using a Bradford protein quantification assay kit (Bio-Rad, Hemel Hempstead, UK). […]\nMembranes were then blocked in 5% non-fat powdered milk in TBST (50 mM Tris-HCl, 150 mM sodium chloride, 0.1% Tween 20, pH 7.4). […] Protein bands were then analyzed by densitometric quantification with Adobe PhotoShop (Adobe Systems, California, USA). […]"}, "Angiopoietin 1": {"tested_on": "Angiopoietin 1", "test": "Angiopoietin 1 staining of adult mouse cutaneous wounds", "type": "in vivo", "details": "mouse cutaneous wounds, 3, 5, 8 day after wound, versus 75% N2", "source_text": "(§1) To create the excisional wounds, adult mice were anesthetized and the dorsal skin was shaved, after sanitizing with 70% ethanol, 4 full-thickness excisional wounds were generated with a 4-mm sterile punch (stiefel laboratories, Research Triangel Park, N.C.). On the dorsal skin using 4-mm-diameter dermal biopsy punches through the two layers of skin (Miltex Inc.).\n(§2) The perfusion fixed skin tissue was cryosectioned (thickness 30 μm) and mounted on Superfrost Plus glass slides for the process of immunostaining analysis. The sections were initially incubated by a solution of 0.3% hydrogen peroxide in methanol to quench endogenous peroxidase before being exposed to a blocking solution of 0.1M phosphate buffered saline (PBS) containing 0.3% Triton X-100 and 3% natural sheep serum (NSS). Following this process of blocking the sections were incubated overnight at […] with rat polyclonal angiopoietin 1, VEGF, CD34, TGF-β (Abcam, UK). […]\n(§3) (A) Angiopoietin 1 staining of adult mouse cutaneous wounds. […] Right lane: the intensity of Angiopoietin 1 was quantified by densitometry and normalized by 75% N2 at 3 day (mean±S.D, n=10), * p<0.05. […] The intensity of VEGF was quantified by densitometry and normalized by 75% N2 at 3 day (mean±S.D, n=10), * p<0.05."}, "VEGF": {"tested_on": "VEGF", "test": "VEGF staining of adult mouse cutaneous wounds", "type": "in vivo", "details": "mouse cutaneous wounds, 3, 5, 8 day after wound, versus 75% N2", "source_text": "as §1, §2, §3"}, "CD34": {"tested_on": "CD34", "test": "Anti-CD34 immunohistochemistry of skin wound samples (new vessels in the wound area)", "type": "in vivo, mice", "details": "mouse skin wound samples, versus Nitrogen", "source_text": "as §1, §2\n(§4) (A) Immunohistochemical analyses using anti-CD34 in skin wound samples from the mice treated with Nitrogen and Argon. […] The numbers of new vessels per a high-power microscopic field (×100) in 10 fields/a slide was counted. […] The intensity of TGFβ was quantified by densitometry and normalized by 75% N2 at 3 day (mean±S.D, n=10), * p<0.05."}, "TGF-β": {"tested_on": "TGF-β", "test": "TGFβ staining of adult mouse cutaneous wounds", "type": "in vivo", "details": "mouse cutaneous wounds, 3, 5, 8 day after wound, versus 75% N2", "source_text": "as §1, §2, §4"}, "skin wound": {"tested_on": "skin wound", "test": "Skin wound healing in mice (excisional wounds)", "type": "in vivo", "details": "75% Argon versus 75% nitrogen", "source_text": "as §1\nA Macroscopic changes in skin wound site in a mice treated with 75% nitrogen or Argon. Day 0 picture was taken immediately after injury. Representative images from 2 individual animals in both groups are shown."}, "HUVECs": {"tested_on": "HUVECs", "test": "Cell migration scratch assay", "type": "cell-based", "details": "75% argon for 2 hours, 16 hours post-exposure", "experimental": "The following was adopted from a previous published protocol (Liang et al., 2007) to study the influence of argon on migration of HUVECs. Prior to assay, HUVECs in EGM were re-suspended in incomplete LSGS medium and seeded onto pre-coated 12-well plates at a density of 2-3×10^5/well. The plates were incubated at 37° C. with 5% CO2 overnight for the cells to adhere to the gelatin surface as well as to create a confluent monolayer. Use of low serum condition is crucial as it ensures survival and attachment of cells while minimising their proliferation.\nOnce 100% confluence was reached, the monolayers were scraped using a sterile p1000 pipette tip along the middle to create a straight-line “scratch”. After cell debris was washed off, the wells were replenished with fresh incomplete-LSGS medium.\nThe plates were then exposed to normal air, 75% argon or 75% nitrogen for 2 hours. From 0 to 16 hours post-exposure, wells were examined every 4 hours. […] The cells were then fixed with 4% paraformaldehyde (Fischer, UK) for 8 minutes and stained with 0.1% crystal violet (Sigma-Aldrich, UK) for 10 minutes. Images were taken as described in the previous section."}, "[3]": {"tested_on": "cerebral cortical neurons", "details": "75% concentration, in vitro, regardless of presence or absence of OGD injury; cited from earlier work"}}}
{"smiles": "[Ar]", "note": "[Argon, argon]", "values": [{"measurement": "VEGF expression in vitro", "setting": "[1]", "value": "enhanced"}, {"measurement": "a-SMA expression in vitro", "setting": "[2]", "value": "enhanced"}, {"measurement": "Angiopoietin 1 expression in vivo", "setting": "Angiopoietin 1", "value": "enhanced"}, {"measurement": "VEGF expression in vivo", "setting": "VEGF", "value": "enhanced"}, {"measurement": "CD34 in vivo (new vessels in the wound area)", "setting": "CD34", "value": "enhanced"}, {"measurement": "TGF-β in vivo", "setting": "TGF-β", "value": "enhanced"}, {"measurement": "Skin wound healing", "setting": "skin wound", "value": "accelerated"}, {"measurement": "Scratch closure by migrating cells", "setting": "HUVECs", "value": "completely closed"}, {"measurement": "Viability and proliferation of cerebral cortical neurons", "setting": "[3]", "value": "potently enhanced"}]}
